Reference: patent US20220008437A1, “Use of prostaglandin E1 methyl ester in manufacture of vasodilator” (XI'AN LIBANG ZHAOXIN BIOTECHNOLOGY CO., LTD., priority 2018, published 2022)
Where two headings read alike, the source gives them in different places.

Key:
[1] = system: ADP-induced platelet aggregation; assay: anti-platelet aggregation test in vitro (platelet-rich plasma, ADP inducer); type: cell-based, SD rats; details: for inhibition at 100 µM: Rattus norvegicus, Platelet, 10 min, after 10 minutes of incubation, read-out: inhibition rate on ADP-induced platelet aggregation; for onset of anti-platelet aggregation effect after addition to PRP: incubation 0 min onward, FIG. 1
Procedure: The Effect of the Prostaglandin E1 Methyl Ester of the Disclosure in the Anti-Platelet Aggregation Test In Vitro.
When healthy adult SD rats were anesthetized by intraperitoneal injection of 10% chloral hydrate, fresh whole blood was collected from the abdominal aorta and added to a centrifuge tube anticoagulated with 3.8% sodium citrate solution, and centrifuged at 900 rpm for 10 minutes to remove the upper platelet-rich plasma (PRP) for use. The tube having PRP removed was further centrifuged at 4000 rpm for 10 minutes, and the upper clarified plasma (PPP) was removed for use. In the experiment, Techlink model LBY-NJ4 4-channel platelet aggregator was used to determine the anticoagulant efficacy of each compound.
Into a sample cup containing 300 μL of PRP, 2 μL of 100 μM prostaglandin E1, prostaglandin E1 methyl ester of example 1, Compound 2 of Example 2 and methanol (solvent) were first added. After incubated for different periods (0, 1, 2, 4, 7, 10, 15 min), 20 μL of aggregation inducer 180 μM ADP solution was added. The aggregation rate of each sample was measured, and the inhibitory rate of the compound on ADP-induced platelet aggregation was calculated.
Inhibition rate %=(solvent aggregation rate−compound aggregation rate)/solvent aggregation rate×100%

hDP1 = molecular target: T1, hDP1 (Homo sapiens, UniProt Q13258); assay: radioligand ([3H] Prostaglandin D2) competitive receptor binding assay, DP receptor affinity in vitro; details: Test Concentration 100 nM; [3H] PGD2 radioligand; read-out: Inhibition rate
T1 sequence (Q13258 1-359): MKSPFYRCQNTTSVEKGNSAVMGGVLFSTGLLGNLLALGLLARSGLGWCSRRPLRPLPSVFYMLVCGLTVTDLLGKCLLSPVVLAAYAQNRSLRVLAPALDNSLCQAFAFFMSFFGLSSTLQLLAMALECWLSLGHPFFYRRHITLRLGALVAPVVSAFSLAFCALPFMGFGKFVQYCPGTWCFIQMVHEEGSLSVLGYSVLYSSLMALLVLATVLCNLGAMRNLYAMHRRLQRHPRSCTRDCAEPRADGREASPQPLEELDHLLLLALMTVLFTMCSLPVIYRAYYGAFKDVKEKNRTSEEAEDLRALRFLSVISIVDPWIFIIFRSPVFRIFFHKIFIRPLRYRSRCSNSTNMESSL
Text: Affinity Test of DP Receptor Target In Vitro.
The radioligand ([3H] Prostaglandin D2 (PGD2)) competitive receptor binding assay was used to evaluate the affinity of the test compound with the DP receptor.

[2] = system: isolated rabbit blood vessels; assay: vasodilation test in vitro, isolated aortic ring specimens; type: cell-based, New Zealand white rabbits; details: isolated rabbit thoracic aortic rings, cumulative addition 0.05-25.6 nM, read-out: diastolic efficacy EC50
Text: The Effect of the Prostaglandin E1 Methyl Ester of the Disclosure in the Vasodilation Test In Vitro
In the experiment, rabbits were selected to prepare isolated aortic ring specimens: New Zealand white rabbits, male, weighing (2.5±0.3) kg. The rabbit was stunned with a blunt instrument, fixed on the rabbit dissecting table, and the thoracic aorta was quickly separated, and placed in a petri dish filled with saturated Kerbs solution (containing NaCl 6.9 g, KCl 0.35 g, MgSO4.7H2O 0.29 g, KH2PO4 0.16 g, NaHCO32.1 g, CaCl2) 0.28 g, glucose 2 g per 1000 mL) at 37° C. and continuously introduced with mixed gas (95% O2, 5% CO2). The remaining blood in the blood vessel was squeezed out, and the peripheral fat and connective tissue were carefully peeled off, and it was cut into 0.5 cm long arterial rings for use. […]
BL-420S biological function experiment system (Chengdu Techman Technology) was used to record the variation of vascular ring tension. After the vascular ring contraction was stable, prostaglandin E1 and the compounds of the Examples were accumulatively added to successively increase the final mass concentration of prostaglandin E1 in the bath tube to 0.05, 0.1, 0.2, 0.4, 0.8, 1.6, 3.2, 6.4, 12.8, 25.6 nM, and the diastolic efficacies of the vascular ring were recorded.

[3] = system: human umbilical vein endothelial cells (HUVEC); assay: HUVEC proliferation, MTT detection; type: cell-based; details: 1-100 nM, incubated 24 hours, compared with unmedicated wells
Procedure: Frozen human umbilical vein endothelial cells (HUVEC) were resuscitated and placed in low-sugar DMEM medium with 10% (V/V) FBS, and 100 U/L penicillin and 0.1 g/L streptomycin were added. It was cultured artificially in an environment of 5% CO2 and 95% air at a temperature of 37° C. A fresh medium was replaced every three days. When the cell density reached 70-80%, the digestion solution (0.25% trypsin/0.02EDTA) was used to harvest the cells. After the cells were resuspended, they were seeded in a 96-well plate with a density of 5×10^3 per well. After 1 day of culture, 1-100 nM of prostaglandin methyl ester was added and incubated for 24 hours for MTT detection.

mouse scleroderma model = mouse scleroderma model (bleomycin subcutaneously); type: in vivo, Balb/c mice; details: for Skin thickness / Collagen content: osmotic pump 28 days; for Skin thickness: inferior vena cava; for Collagen content: skin
Procedure: Therapeutic Effect of Prostaglandin E1 Methyl Ester in Mouse Scleroderma Model In this experiment, 56 Balb/c mice weighing 22-25 g were randomly divided into 7 groups: normal group, model group, vehicle group, prostaglandin E1 high-dose group and prostaglandin E1 low-dose group, and prostaglandin E1 methyl ester high-dose group and prostaglandin E1 methyl ester low-dose group. Model preparation: the clothing hair on the central area of the mice was shaved, the normal group was injected with 0.1 ml PBS subcutaneously on the back, and the other groups were injected with 0.1 ml of 0.2 mg/ml bleomycin subcutaneously, once a day for three weeks. […] Prostaglandin E1 high and low-dose groups were loaded with 28 μg and 14 μg of drugs respectively; prostaglandin E1 methyl ester high and low-dose groups were also loaded with 28 μg and 14 μg of drugs respectively; solvent group was not loaded with drugs. […] The administration was started at the same time as the model was created. Index detection: After the administration, the animals were sacrificed, and skin and lung sections of the injection site were made, and HE stained. The histological changes were observed, and the skin (dermis) thickness was measured; and the photoelectric colorimetry was used to determine the content of hydroxyproline and protein in the skin to infer the content of collagen.

[4] = distribution in rat skin tissue (total radiation value); details: 200 μg [3H]-labelled drug via osmotic pump over 3 days, inferior vena cava
Procedure: Distribution of Prostaglandin E1 Methyl Ester in Rat Skin Tissue
In this experiment, 12 male SD rats weighing 250-280 g were randomly divided into two groups (n=6): prostaglandin E1 group and prostaglandin E1 methyl ester group. Osmotic pumps (model 1003D, ALZA Corporation, Canada) containing 100 μl of drug in DMSO were used. The drug was released at a constant rate, and the drug release cycle was 3 days. They were loaded with 200 μg of [^3H] prostaglandin E1 and [^3H] prostaglandin E1 methyl ester respectively. […] After the administration, the animals were sacrificed, skin tissues were taken (the same position for each animal), weighed, and the total radiation value was measured.

[5] = 2 μL of 100 μM compound in 300 μL PRP

SMILES | inhibition at 100 µM [1, 5] [%] | onset of anti-platelet aggregation effect after addition to PRP [1] | inhibition at 0.1 µM (hDP1) [%] | duration of anticoagulant effect relative to prostaglandin E1 ([1]; compared with prostaglandin E1) [times] | EC50 ([2]; Oryctolagus cuniculus) [nM] | proliferation of vascular endothelial cells [3] | lung tissue histology (alveolar septum thickening, inflammatory cell infiltration) (mouse scleroderma model; HE stained lung sections, compared with prostaglandin E1 group) | Skin thickness (mouse scleroderma model; high-dose 1 ug/day) [μm] | Collagen content (mouse scleroderma model; high-dose 1 ug/day) [mg/L] | Skin thickness (mouse scleroderma model; low-dose 0.5 ug/day) [μm] | Collagen content (mouse scleroderma model; low-dose 0.5 ug/day) [mg/L] | inhibition rate on ADP-induced platelet aggregation ([1]; after 4 minutes of incubation, 2 μL of 100 μM compound in 300 μL PRP) [%] | EC50 [2] [nM] | Skin tissue concentration [4]
CCCCC[C@H](O)/C=C/[C@H]1[C@H](O)CC(=O)[C@@H]1CCCCCCC(=O)OCC [Compound 2] | 51.9 | does not take effect immediately |  |  |  |  |  |  |  |  |  |  |  | 
CCCCCC(O)/C=C/C1C(O)CC(=O)C1CCCCCCC(=O)OC (stereo not drawn) [prostaglandin E1 methyl ester] | 43.7 | take effect immediately | 78 | 2 | 1.09 | significant effect of promoting the proliferation of vascular endothelial cells | slightly better than the prostaglandin E1 group | 21.35 ± 2.11 | 467.52 ± 141.08 | 24.66 ± 2.54 | 588.62 ± 127.41 |  |  | 
CCCCC[C@H](O)/C=C/[C@H]1[C@H](O)CC(=O)[C@@H]1CCCCCCC(=O)O [prostaglandin E1, Prostaglandin E1] |  | take effect immediately |  |  |  |  |  | 29.12 ± 2.46 | 879.66 ± 128.92 | 32.59 ± 3.03 | 947.99 ± 214.86 | 4.93 | 9.77 | 45.1 ± 7.5 ng (radiatione quivalent)/g
